Structures can show the parent of a compound that is named as a salt. Where two headings read alike, the source gives them in different places.

Here are results for 55 compounds from paper PMC12069340 (Frontiers in Cellular and Infection Microbiology, 2025).

For the test, the system named is A/PuertoRico/8/1934 (H1N1) virus. The test can be described thus: microbe, parasite or virus in culture. It counts as cell-based, influenza A virus.
Setting [1] is: Influenza A virus, H1N1, U-937, 48 h; read-out: NA Inhibition (%).
Where [2] appears, read: Influenza A virus, H1N1, U-937, 48 h, read-out: NA Inhibition (%).

In the case of `CC(C)N(CCC(c1ccccc1)c1cc(CO)ccc1O)C(C)C` (stereo not shown) [5-hydroxymethyl Tolterodine], the “NA Inhibition (%)” value (20 µM) was found to be 6.5%. For `O=C(c1ccc(F)cc1)N1CCC[C@H](c2nc(-c3ccc(F)cc3)no2)C1` [ADX-47273], the “NA Inhibition (%)” value (20 µM) was found to be 34.4%. As to `CNCC(=O)c1ccc(O)c(O)c1.Cl` [Adrenalone HCl], the “NA Inhibition (%)” value (20 µM) is listed as 6.4%. Usually inhibition stands for the change of the read-out against control, counted positive when it falls. Turning to `COC(=O)C1=CCCN(C)C1` [Arecoline], the inhibition at 20 µM under setting [1] is -10.6%. On the same count and under the same terms, the figure for `CN1[C@@H]2CC[C@H]1C[C@@H](OC(=O)C(CO)c1ccccc1)C2` (stereo partly shown) [Atropine] is -5.8%. Still for that read-out and setting: for `COc1ccccc1N1CCN(CCN2C(=O)CC3(CCCC3)CC2=O)CC1` [BMY 7378] the value was 23.8%. Take `OC(CN1CCN(c2cccc(Cl)c2)CC1)C(c1ccccc1)c1ccccc1` (stereo not shown) [BRL-15572]: the “NA Inhibition (%)” value (20 µM) was 24.4%. As to `CN1CCC(c2c[nH]c3ccc(O)cc23)CC1` [BRL-54443], the “NA Inhibition (%)” value (20 µM) turned out to be 23.6%.

As for `O=C(O)CCCN1CCC(O[C@@H](c2ccc(Cl)cc2)c2ccccn2)CC1.O=S(=O)(O)c1ccccc1` [Bepotastine Besilate], the “NA Inhibition (%)” value (20 µM) was found to be 21.1%. The same measure, in the same setting: the figure for `CNCCc1ccccn1.Cl.Cl` [Betahistine 2HCl] is 4.8%; for `CN(C)CCC(c1ccc(Br)cc1)c1ccccn1.O=C(O)/C=C\C(=O)O` (stereo not shown) [Brompheniramine hydrogen maleate] it is 12.4%. The same measure, in the same setting: the figure for `Cc1nc(C#Cc2ccnc(Cl)c2)c(C)n1-c1ccc(OC(F)(F)F)cc1` [CTEP (RO4956371)] is 31.0%; for `CCC1=C[C@@H]2CN3CCc4c([nH]c5ccccc45)[C@@](C(=O)OC)(C2)[C@@H]13` [Catharanthine] it is 42.3%. `CN(C)CCCN1c2ccccc2CCc2ccc(Cl)cc21` [Clomipramine HCl]: under setting [2], the inhibition at 20 µM was -11.3%. For `CN1CCC(=C2c3ccccc3C=Cc3ccccc32)CC1` [Cyproheptadine HCl], the inhibition at 20 µM under setting [1] is 4.6%.

As to `Cc1cccc([C@H](C)c2cnc[nH]2)c1C` [Dexmedetomidine], the “NA Inhibition (%)” value (20 µM) was 21.4. Take `COc1cc2c(cc1OC)C(=O)C(CC1CCN(Cc3ccccc3)CC1)C2` (stereo not shown) [Donepezil HCl]: the inhibition at 20 µM under setting [2] came to 4.5%. In the case of `CN1CCC[C@@H]1Cc1c[nH]c2ccc(CCS(=O)(=O)c3ccccc3)cc12` [Eletriptan HBr], the inhibition at 20 µM under setting [1] amounted to 20.2%. Take `CNC[C@H](O)c1ccc(O)c(O)c1` [Epinephrine HCl]: the inhibition at 20 µM under setting [2] is 7.1%. On the same count and under the same terms, for `CC(C)(C(=O)O)c1ccc(C(O)CCCN2CCC(C(O)(c3ccccc3)c3ccccc3)CC2)cc1` (stereo not shown) [Fexofenadine HCl] the value was -9.9%. Regarding `CC[N+](CC)(CC)CCOc1cccc(OCC[N+](CC)(CC)CC)c1OCC[N+](CC)(CC)CC` [Gallamine Triethiodide], the inhibition at 20 µM under setting [1] is -9%. `Cl.Cl.NCCc1c[nH]cn1` [Histamine 2HCl]: the “NA Inhibition (%)” value (20 µM) came to 2.5. With `C[N+]1(C)[C@@H]2CC[C@H]1C[C@@H](OC(=O)C(O)c1ccccc1)C2` (stereo partly shown) [Homatropine Methylbromide], the inhibition at 20 µM under setting [1] was -12%. Regarding `Br.Br.NCCCCCNCC12CC3CC(CC(C3)C1)C2` [IEM 1754 dihydrobroMide], the “NA Inhibition (%)” value (20 µM) stood at 23.2%. On to `CCc1cc2c(cc1CC)CC(NC[C@H](O)c1ccc(O)c3[nH]c(=O)ccc13)C2` [Indacaterol Maleate], for which the inhibition at 20 µM under setting [1] was -6%. With `CN1CCN(C(=O)c2cc3cc(Cl)ccc3[nH]2)CC1` [JNJ-7777120], the inhibition at 20 µM under setting [2] came to 19.7%. Turning to `CCc1ccc(OCc2ccccc2C(=O)Nc2ccc3nc(C)cc(N)c3c2)cc1` [JTC-801], for the setting “20 µM”, the “NA Inhibition (%)” value stood at 41.4%. In the case of `CCN(CC)CC(=O)Nc1c(C)cccc1C` [Lidocaine], the inhibition at 20 µM under setting [1] stood at 5.1%.

Regarding `C[C@]12N[C@H](Cc3ccccc31)c1ccccc12` [MK-801 (Dizocilpine), Dizocilpine], under setting [2], the inhibition at 20 µM is 20.9%.

As for `Cc1cccc(C#Cc2ccccc2)n1` [MPEP], the “NA Inhibition (%)” value (20 µM) worked out at 32.6%. Regarding `CNCCCC12CCC(c3ccccc31)c1ccccc12` [Maprotiline HCl], under setting [2], the inhibition at 20 µM was -23.2%. Same read-out and setting: the figure for `C=CCN1CC[C@]23c4c5ccc(O)c4O[C@H]2C(=O)CC[C@@]3(O)[C@H]1C5` [Naloxone HCl] is 25.4%. In the case of `c1ccc2c(CC3=NCCN3)cccc2c1` [Naphazoline HCl], the inhibition at 20 µM under setting [1] is -18.7%.

Turning to `O=C(O)c1cccnc1Nc1cccc(C(F)(F)F)c1` [Niflumic acid], under setting [1], the inhibition at 20 µM is 23.7%.

As for `CCCCCCCCOc1ccccc1C(=O)Nc1ccc(C(=O)OCC[N+](C)(CC)CC)cc1` [Otilonium Bromide], the inhibition at 20 µM under setting [1] was -2.3%. Consider `COc1cc(OC)c(NC(=O)Nc2cc(C)on2)cc1Cl` [PNU-120596], for which the “NA Inhibition (%)” value (20 µM) is listed as -38.3%. In the case of `CC(COc1ccccc1)N(CCCl)Cc1ccccc1` (stereo not shown) [Phenoxybenzamine HCl], under setting [1], the inhibition at 20 µM is 95.4%. Take `CNC[C@H](O)c1cccc(O)c1` [Phenylephrine HCl]: the inhibition at 20 µM under setting [2] came out at 4.9%. The same measure, in the same setting: for `COCCCN1CCC(NC(=O)c2cc(Cl)c(N)c3c2OCC3)CC1` [Prucalopride] the value was 20.7%.

In the case of `CC(C)c1cc(-c2ccc(F)c3ccccc23)nc(N)n1` [RS-127445], the “NA Inhibition (%)” value (20 µM) stood at 20.3%.

For `CC(=O)SCC(Cc1ccccc1)C(=O)NCC(=O)OCc1ccccc1` (stereo not shown) [Racecadotril], under setting [2], the inhibition at 20 µM is -29.5%. Turning to `CC(NCCc1ccc(O)cc1)C(O)c1ccc(O)cc1` (stereo not shown) [Ritodrine HCl], the inhibition at 20 µM under setting [1] was -20.6%.

Regarding `Cc1cncc(CN2CCC(=C3c4ccc(Cl)cc4CCc4cccnc43)CC2)c1.O=C(O)/C=C/C(=O)O` [Rupatadine Fumarate], the “NA Inhibition (%)” value (20 µM) amounted to 22.5%. The same measure, in the same setting: the figure for `COc1ccc(NS(=O)(=O)c2sc3ccc(Cl)cc3c2C)cc1N1CCNCC1.Cl` [SB271046 HCl] is 18.8%.

In the case of `O=S(=O)(c1ccccc1)c1cnc2c(N3CCNCC3)cccc2c1` [SB742457], the inhibition at 20 µM under setting [1] was found to be 16.8%. For the compound `CN1[C@@H]2CC(O)C[C@H]1[C@@H]1O[C@@H]12` (stereo partly shown) [Scopine], the “NA Inhibition (%)” value (20 µM) is given as -19.4%. `CN1[C@@H]2C[C@@H](OC(=O)[C@H](CO)c3ccccc3)C[C@H]1[C@@H]1O[C@@H]12` [Scopolamine HBr]: under setting [2], the inhibition at 20 µM is -0.4%. As for `CN1c2ccccc2C(NCCCCCCC(=O)[O-])c2ccc(Cl)cc2S1(=O)=O.[Na+]` (stereo not shown) [Tianeptine sodium], under “20 µM”, the “NA Inhibition (%)” value came to 4.5%. Take `C[N+]1(C)[C@@H]2C[C@@H](OC(=O)C(O)(c3cccs3)c3cccs3)C[C@H]1[C@@H]1O[C@@H]12` [Tiotropium Bromide hydrate]: under setting [1], the inhibition at 20 µM was -34.7%. Turning to `Cc1ccc(O)c([C@H](CCN(C(C)C)C(C)C)c2ccccc2)c1` [Tolterodine tartrate], the inhibition at 20 µM under setting [2] is -12%.

Turning to `O=c1n(CCCN2CCN(c3cccc(Cl)c3)CC2)nc2ccccn12` [Trazodone HCl], the inhibition at 20 µM under setting [2] is -9.8%. As to `CCCCOc1ccc(C(=O)Nc2ccc(F)cc2F)cc1` [VU 0357121], the “NA Inhibition (%)” value (20 µM) stood at 29.7%. Regarding `COc1cc(NC(=O)c2ccccn2)ccc1Cl` [VU 0361737], under setting [2], the inhibition at 20 µM amounted to 23.5%. Regarding `O=C(Nc1cccc(Cl)c1)c1ccccn1` [VU 0364770], the “NA Inhibition (%)” value (20 µM) amounted to 28.5%.

Take `CN1CCN(c2nc3ccccc3nc2Cl)CC1` [VUF 10166]: the “NA Inhibition (%)” value (20 µM) was determined as 7.6%.
